The values below come from patent US20120232062A1, “AZAINDAZOLES TO TREAT FLAVIVIRIDAE VIRUS INFECTION” (EIGER BIOPHARMACEUTICALS, INC., priority 2009, published 2012).

In assay [1] the test system is HCV genotype 1b. Put plainly: HCV 1b replicon luciferase assay. Type of assay: cell-based. Summed up: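 Huh7 cells carrying a genotype 1b replicon with stable luciferase reporter, 10k cells/well, were treated 48 h at 37 °C with 10-point 5-fold dilutions from 25 μM (0.1% DMSO), in duplicate. Replication was read as Steady-Glo luminescence.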
On the technique in general: Replicon systems follow genome replication, usually without infectious particles.

Assay [2] has as its target T1, hERG channel (Homo sapiens, UniProt Q12809).
T1 construct: host or cells: CHO (Chinese Hamster Ovary), stably transfected
The experiment in a line: hERG channel assay. To be noted: CHO cell line expressing hERG, whole cell recordings. Type of assay: cell-based. The protocol:
The most common mechanism for these adverse events is the inhibition of one or more cardiac potassium channels, in particular hERG. This current is important for cardiac myocyte repolarization and is a common target for drugs that prolong the QT interval. Test articles in this study were therefore characterized to determine their ability to inhibit the hERG channel. Ion channel activity was measured using a stably transfected Chinese Hamster Ovary (CHO) cell line expressing the hERG mRNA. The pharmacology of this cloned channel expressed in the CHO cell line is very similar to that observed in native tissue.
Cells: AVIVA's CHO cell line, which stably expresses hERG channels, was used for the study. Cells were cultured in DMEM/F12 containing 10% FBS, 1% penicillin/streptomycin and 500 μg/ml G418. Before testing, cells were harvested using Accumax (Innovative Cell Technologies).
Solutions: For electrophysiological recordings, the following solutions were used. External Solution: 2 mM CaCl2; 2 mM MgCl2; 4 mM KCl; 150 mM NaCl; 10 mM Glucose; 10 mM HEPES; 310-320 mOsm; pH 7.4 (adjusted with 1M NaOH). Internal Solution: 140 mM KCl; 10 mM MgCl2; 6 mM EGTA; 5 mM HEPESNa; […]; 300-320 mOsm; pH 7.25 (adjusted with 1M KOH).
Electrophysiology: Whole cell recordings were performed using PX 7000A (Axon Instruments) with VIVA's SealChip™ technology. Cells were voltage clamped at a holding potential of −80 mV. The hERG current was then activated by a depolarizing step to −50 mV for 300 ms. This first step at −50 mV was used as a baseline for measuring peak amplitude of the tail current. Next, a voltage step to +20 mV was applied for 5 s to activate the channels. Finally a step back to −50 mV for 5 seconds removed activation and the deactivating tail current was recorded.
Compound Handling and Dilutions: All compounds were prepared from either 10 or 30 mM DMSO stock solutions. Solutions were mixed by sonication for 20 min, followed by vigorous vortexing. Prior to testing, compounds were diluted to test concentrations in glass vials using External Solution. Dilutions were prepared no longer than 20 min prior to use. Equal amounts of DMSO (0.1%) were present in all final dilutions.
Electrophysiology Procedures: After achieving whole cell configuration, cells were monitored for 90 s to assess stability and then washed with External Solution for 66 s. The voltage protocol described above was then applied to the cells every 12 s throughout the procedure. Only stable cells with recording parameters above threshold (see Quality Control section) were allowed to enter the drug addition procedure. External solution containing 0.1% DMSO (vehicle) was applied to the cells to establish a baseline. After allowing the current to stabilize for 3 to 5 min, test articles were applied. Test article solutions were added to cells in 4 separate additions. Cells were kept in test solution until effect of the test article reached steady state, to a maximum of 12 min. Next, 1 μM cisapride (positive control) was added. Finally, washout with External Solution was performed until the recovery current reached a steady state.
Data Analysis: Data analysis was performed using DataXpress (Axon Instruments), Clampfit (Axon Instruments) and Origin (Originlab Corporation) software.
In general terms: hERG is a cardiac potassium channel; its block is linked to QT prolongation.

Setting [3] is: Hepatitis C virus, Huh-7, 48 h, Table 1, Huh7 HCV 1b replicon, luciferase reporter, 48 hours, read-out: 1b EC50.
[4] abbreviates: Hepatitis C virus, read-out: 1b replicon EC50, Tables 4, 5 and text of the rat PK section.
The mark [5] stands for this setting: read-out: 1b replicon EC50, Tables 4, 5 and the rat PK section.

Read-outs that look alike come from different tables or passages of the source. Where only a bound is given, the exact number is not on record here.

A word on the EC50: it is the concentration that produces a half-maximal response. A word on the IC50: it is the point on the concentration scale where inhibition reaches its midpoint. A higher IC50 goes with weaker potency in that assay.

T1 sequence (Q12809 whole entry): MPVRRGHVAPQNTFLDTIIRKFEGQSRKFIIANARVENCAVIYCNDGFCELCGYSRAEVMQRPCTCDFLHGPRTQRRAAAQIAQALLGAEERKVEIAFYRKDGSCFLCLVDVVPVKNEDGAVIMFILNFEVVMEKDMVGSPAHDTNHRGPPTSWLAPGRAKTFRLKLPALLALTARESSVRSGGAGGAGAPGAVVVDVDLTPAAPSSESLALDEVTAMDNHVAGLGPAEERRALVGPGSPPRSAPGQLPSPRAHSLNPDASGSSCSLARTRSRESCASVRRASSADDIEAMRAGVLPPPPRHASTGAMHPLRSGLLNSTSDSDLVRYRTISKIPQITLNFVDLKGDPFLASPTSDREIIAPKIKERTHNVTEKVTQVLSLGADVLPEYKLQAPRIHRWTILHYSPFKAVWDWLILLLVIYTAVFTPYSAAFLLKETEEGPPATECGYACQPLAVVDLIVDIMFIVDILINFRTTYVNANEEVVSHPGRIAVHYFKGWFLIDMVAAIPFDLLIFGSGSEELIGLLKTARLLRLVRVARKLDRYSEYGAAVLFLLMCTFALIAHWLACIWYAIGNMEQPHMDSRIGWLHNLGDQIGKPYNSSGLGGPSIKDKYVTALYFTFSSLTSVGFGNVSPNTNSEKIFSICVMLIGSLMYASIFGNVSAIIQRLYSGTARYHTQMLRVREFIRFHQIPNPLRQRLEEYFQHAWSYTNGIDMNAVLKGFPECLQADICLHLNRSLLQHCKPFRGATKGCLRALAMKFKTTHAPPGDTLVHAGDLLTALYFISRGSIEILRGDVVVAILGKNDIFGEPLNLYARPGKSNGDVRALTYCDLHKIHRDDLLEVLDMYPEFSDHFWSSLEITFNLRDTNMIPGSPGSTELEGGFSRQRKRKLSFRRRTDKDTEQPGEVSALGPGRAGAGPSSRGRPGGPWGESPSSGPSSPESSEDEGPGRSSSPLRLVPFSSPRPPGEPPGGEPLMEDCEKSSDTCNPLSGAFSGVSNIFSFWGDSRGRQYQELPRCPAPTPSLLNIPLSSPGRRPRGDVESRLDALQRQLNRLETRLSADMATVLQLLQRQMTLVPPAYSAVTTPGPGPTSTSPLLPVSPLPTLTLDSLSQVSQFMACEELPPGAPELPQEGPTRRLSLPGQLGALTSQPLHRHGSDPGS

Regarding `CCC(CC)Oc1ccc2c(COCC3CCCNC3)nn(Cc3ccc(Cl)cc3)c2n1.O=C(O)C(F)(F)F` (stereo not shown) [compound 755], the EC50 in assay [1] (setting [3]) was 3200 nM. In assay [2], this compound showed an IC50 of over 10000 nM. On to `Cn1nc(CCCN2CCCC2)c2ccc(N3CCCCCCC3)nc21` [compound 1171], for which the half-maximal effective concentration (EC50) in assay [1] (setting [3]) is 1600 nM. Take `Cn1nc(C(=O)NC2CCNCC2)c2ccc(N3CCCCCC3)nc21.O=C(O)C(F)(F)F.O=C(O)C(F)(F)F` [compound 697]: the EC50 in assay [1] (setting [3]) was 670 nM. Further, the IC50 in assay [2] is over 10000 nM. For `Cn1nc(C(=O)NC2CCN(CCN3CCCC3)CC2)c2ccc(N3CCCCCC3)nc21` [compound 1597], in that order: 770 nM and 9100 nM.

Take `Cn1nc(C(=O)NC2CCN(CCN3CCCCC3)CC2)c2ccc(N3CCCCCC3)nc21` [compound 1047]: the EC50 in assay [1] (setting [3]) is 520 nM. Moreover, the IC50 in assay [2] worked out at 9500 nM. As to `CCN1CCC(NC(=O)c2nn(C)c3nc(N4CCCCCC4)ccc23)CC1` [compound 1595], the EC50 in assay [1] (setting [3]) turned out to be 740 nM. For the same compound, the concentration for half-maximal inhibition (IC50) in assay [2] worked out at 1100 nM. Regarding `CCN1CCC(NC(=O)c2nn(C)c3nc(N4CCCCCC4)ccc23)CC1` [EBP1595], the EC50 in assay [1] (setting [4]) is 500 to 2000 nM; in assay [1] (setting [5]) it was 1000 nM.

With `Cn1nc(C(=O)NC2CCN(CCN3CCCC3)CC2)c2ccc(N3CCCCCC3)nc21` [EBP1597], the results for the 50% effective concentration (EC50) in assay [1] (setting [4]) and in assay [1] (setting [5]) were 500 to 2000 nM and 900 nM, respectively. As to `CCC(CC)Oc1ccc2c(C(=O)NC3CCNCC3)n[nH]c2n1` [compound 726], the EC50 in assay [1] (setting [3]) came out at 1200 nM. The compound also had an IC50 in assay [2] of over 10000 nM. Turning to `Cn1nc(C(=O)NC2CCN(CC(F)F)CC2)c2ccc(N3CCCCCC3)nc21` [compound 1110], the EC50 in assay [1] (setting [3]) is 1800 nM. Regarding `Clc1ccc(Cn2nc(COCCCN3CCCCC3)c3ccc(N4CCCCCC4)nc32)cc1` [compound 749], the EC50 in assay [1] (setting [3]) turned out to be 2000 nM. The compound further registered an IC50 in assay [2] of 3300 nM. Consider `Cn1nc(C(=O)NC2CCN(CCN3CCCCC3)CC2)c2ccc(N3CCCCCC3)nc21` [EBP1047], for which the EC50 in assay [1] (setting [4]) is 500 to 2000 nM; in assay [1] (setting [5]), 500 nM. Take `Cn1nc(CCCN2CCCCC2CO)c2ccc(N3CCCCCCC3)nc21` (stereo not shown) [compound 1456]: the EC50 in assay [1] (setting [3]) turned out to be 1500 nM. For `Cn1nc(C(=O)NC2CCN(CC3CCCCC3)CC2)c2ccc(N3CCCCCCC3)nc21` [compound 1062], the EC50 in assay [1] (setting [3]) was found to be 356 nM. The IC50 in assay [2] is over 10000 nM.

`O=C(NC1CCNCC1)c1nn(C(=O)C2CCCCC2)c2nc(N3CCCCCC3)ccc12.O=C(O)C(F)(F)F.O=C(O)C(F)(F)F.O=C(O)C(F)(F)F` [compound 989]: the EC50 in assay [1] (setting [3]) came out at 2600 nM. The compound also registered an IC50 in assay [2] of over 10000 nM. On to `CC(C)N1CCC(NC(=O)c2nn(C)c3nc(N4CCCCCC4)ccc23)CC1` [EBP1604], for which, in assay [1] (setting [5]), the EC50 turned out to be 2200 nM.
